Reference: patent publication US20160311791A1, “NOVEL TRICYCLIC CALCIUM SENSING RECEPTOR ANTOGONISTS FOR THE TREATMENT OF OSTEOPOSOSIS” (MERCK SHARP & DOHME CORP., priority 2013, published 2016)

target: T1, human CaSR (Homo sapiens, UniProt P41180); assay: CaSR FLIPR assay (calcilytic activity); format: cell-based; design: expressed in transfected cells; conditions: HEK293 cells stably expressing human recombinant CaSR; 1 mM CaCl2 agonist; Tables 1-24; read-out: FLIPR ASSAY IC50
T1 sequence (P41180 20-1078): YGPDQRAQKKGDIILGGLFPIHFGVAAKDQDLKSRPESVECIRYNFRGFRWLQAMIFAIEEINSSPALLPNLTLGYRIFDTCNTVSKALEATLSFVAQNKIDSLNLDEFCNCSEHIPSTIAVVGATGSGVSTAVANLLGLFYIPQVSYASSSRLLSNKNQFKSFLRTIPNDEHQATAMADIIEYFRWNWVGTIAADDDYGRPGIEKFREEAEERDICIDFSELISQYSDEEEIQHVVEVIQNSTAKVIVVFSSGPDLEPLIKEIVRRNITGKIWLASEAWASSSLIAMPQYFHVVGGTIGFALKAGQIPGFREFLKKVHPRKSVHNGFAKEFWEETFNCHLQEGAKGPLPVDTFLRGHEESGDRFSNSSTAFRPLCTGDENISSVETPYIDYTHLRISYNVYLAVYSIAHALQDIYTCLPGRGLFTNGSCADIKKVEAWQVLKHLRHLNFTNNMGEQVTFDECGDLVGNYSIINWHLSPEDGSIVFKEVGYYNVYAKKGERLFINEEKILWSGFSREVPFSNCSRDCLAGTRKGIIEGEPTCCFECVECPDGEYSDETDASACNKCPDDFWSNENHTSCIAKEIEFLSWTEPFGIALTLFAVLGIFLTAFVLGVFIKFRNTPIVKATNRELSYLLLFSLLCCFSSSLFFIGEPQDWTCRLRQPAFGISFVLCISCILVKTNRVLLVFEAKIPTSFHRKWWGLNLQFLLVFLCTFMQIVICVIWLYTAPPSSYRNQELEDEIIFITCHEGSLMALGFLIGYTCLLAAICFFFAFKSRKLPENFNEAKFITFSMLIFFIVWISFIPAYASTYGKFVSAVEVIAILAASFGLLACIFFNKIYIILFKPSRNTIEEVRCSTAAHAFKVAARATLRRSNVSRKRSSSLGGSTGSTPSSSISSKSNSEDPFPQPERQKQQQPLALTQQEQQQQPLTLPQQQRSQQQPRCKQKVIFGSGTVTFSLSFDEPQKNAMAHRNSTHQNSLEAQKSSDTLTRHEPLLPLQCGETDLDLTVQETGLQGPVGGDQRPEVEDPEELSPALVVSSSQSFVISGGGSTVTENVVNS
Description: Procedures for CaSR FLIPR Assay
Calcilytic activity of the compound is measured in HEK293 cells stably expressing human recombinant CaSR (HEK-CaSR) using a FLIPR^TETRA device (Molecular Devices, Sunnyvale, Calif.) according to the manufacturer's directions. […] On the day of the assay, one vial of FLIPR Calcium 4 Assay Kit reagent Component A was equilibrated to room temperature. The content of the Component A vial was diluted by adding 10 ml dilution buffer (2×loading dye). The sample was mixed by vortexing (1-2 minutes) until the contents of the vial dissolved. The Component A vial mixture was diluted with 10 ml dilution buffer. Media was aspirated from the cells and 80 μl of loading buffer was added to each well. Plates were incubated for 1 hour at 37° C. and then placed at room temperature for 10 minutes. A two-stage method of generating 10-point serial dilutions was used. Compound was serially diluted in 100% DMSO (10 point, 3-fold dilution of each compound from 2 mM in 100% DMSO). 3 μl of serially diluted compound was transferred into a second assay microplate that contained 97 μl of TETRA dilution buffer (20 mM HEPES pH7.4, 1×HBSS without Ca and Mg, 0.4 mM CaCl2, 0.4 mM MgSO4, 0.5 mM MgCl2) to create the intermediate dilution plate. After reading the base line, the compounds in 0.5% DMSO in dilution buffer were added to their respective wells as 20 μl aliquots at 6×the final drug concentration. The fluorescence signals were then read. Subsequently, 20 μl of 3.6 mM of CaCl2 agonist (1 mM final concentration) was added to each well. For background, 20 μl of TETRA dilution buffer was added instead. The protocol consisted of a pre-addition read of 10 frames (10×1 frame/sec), a post 1st addition read of 100 frames (60×1 frame/sec, 40×1 frame/3 sec), pause 3 min, a post 2nd addition read of 100 frames (60×1 frame/sec, 40×1 frame/3 sec) on a FLIPR^TETRA Plate Reader.

SMILES	IC50 [nM]
COc1ccc(CC(C)(C)NC[C@@H](O)CO[C@H](C)c2cccc3c2[C@@H]2[C@H](O3)[C@H]2C(=O)O)c(Cl)c1 [Example 5-16]	38
C[C@@H](OC[C@H](O)CNC(C)(C)CCSc1ccccc1)c1cccc2c1[C@@H]1[C@H](O2)[C@H]1C(=O)O [Example 5-17]	150
CSc1ccc(CC(C)(C)NC[C@@H](O)CO[C@H](C)c2cccc3c2[C@@H]2[C@H](O3)[C@H]2C(=O)O)cc1Cl [Example 5-18]	53
CSc1ccc(CC(C)(C)NC[C@@H](O)CO[C@H](C)c2cccc3c2[C@@H]2[C@H](O3)[C@H]2C(=O)O)cc1C [Example 5-19]	97
CCOC(=O)[C@@H]1[C@H]2Oc3cccc([C@@H](C)OC[C@H](O)CNC(C)(C)Cc4ccc5ccccc5c4)c3[C@H]21 [Example 5-20]	130
C[C@@H](OC[C@H](O)CNC(C)(C)Cc1ccc2ccccc2c1)c1cccc2c1[C@@H]1[C@H](O2)[C@H]1C(=O)NS(=O)(=O)C1(C)CC1 [Example 6-1]	30
C[C@@H](OC[C@H](O)CNC(C)(C)Cc1ccc2ccccc2c1)c1cccc2c1[C@H]1[C@@H](O2)[C@@H]1C(=O)O [Example 7-1]	80
Cc1ccc([C@@H](C)OC[C@H](O)CNC(C)(C)Cc2ccc3ccccc3c2)c2c1O[C@@H]1[C@@H](C(=O)O)[C@H]21 [Example 8-1]	14
Cc1ccc([C@@H](C)OC[C@H](O)CNC(C)(C)Cc2ccc(Cl)c(F)c2)c2c1O[C@@H]1[C@@H](C(=O)O)[C@H]21 [Example 8-2]	58.5
Cc1ccc([C@@H](C)OC[C@H](O)CNC(C)(C)CC2Cc3ccccc3C2)c2c1O[C@@H]1[C@@H](C(=O)O)[C@H]21 [Example 8-3]	20
Cc1ccc(CC(C)(C)NC[C@@H](O)CO[C@H](C)c2ccc(C)c3c2[C@@H]2[C@H](O3)[C@H]2C(=O)O)cc1F [Example 8-4]	21
Cc1ccc(CC(C)(C)NC[C@@H](O)CO[C@H](C)c2ccc(C)c3c2C2[C@H](O3)[C@H]2C(=O)O)cc1C (some centres unmarked) [Example 8-5]	18
Cc1ccc([C@@H](C)OC[C@H](O)CNC(C)(C)Cc2cc3ccccc3s2)c2c1O[C@@H]1[C@@H](C(=O)O)[C@H]21 [Example 8-6]	96
Cc1ccc([C@@H](C)OC[C@H](O)CNC(C)(C)Cc2ccc3occc3c2)c2c1O[C@@H]1[C@@H](C(=O)O)[C@H]21 [Example 8-7]	42
Cc1ccc([C@@H](C)OC[C@H](O)CN2CCCC2Cc2ccccc2)c2c1O[C@@H]1[C@@H](C(=O)O)[C@H]21 (some centres unmarked) [Example 8-8]	489
Cc1ccc([C@@H](C)OC[C@H](O)CNC(C)(C)Cc2cccc3ccccc23)c2c1O[C@@H]1[C@@H](C(=O)O)[C@H]21 [Example 8-9]	119
Cc1ccc([C@@H](C)OC[C@H](O)CNC(C)(C)Cc2ccc3c(c2)CCC3)c2c1O[C@@H]1[C@@H](C(=O)O)[C@H]21 [Example 8-10]	15
Cc1ccc([C@@H](C)OC[C@H](O)CNC(C)(C)Cc2ccc3c(c2)OCO3)c2c1O[C@@H]1[C@@H](C(=O)O)[C@H]21 [Example 8-11]	50
Cc1ccc([C@@H](C)OC[C@H](O)CNC(C)(C)Cc2ccc3sccc3c2)c2c1O[C@@H]1[C@@H](C(=O)O)[C@H]21 [Example 8-12]	10
Cc1ccc([C@@H](C)OC[C@H](O)CNC(C)(C)Cc2ccc3c(c2)OCCO3)c2c1O[C@@H]1[C@@H](C(=O)O)[C@H]21 [Example 8-13]	22
COc1ccc(CC(C)(C)NC[C@@H](O)CO[C@H](C)c2ccc(C)c3c2[C@@H]2[C@H](O3)[C@H]2C(=O)O)c(F)c1 [Example 8-14]	30
Cc1ccc([C@@H](C)OC[C@H](O)CNC(C)(C)Cc2ccc(Cl)c(Cl)c2)c2c1O[C@@H]1[C@@H](C(=O)O)[C@H]21 [Example 8-15]	14
Cc1ccc([C@@H](C)OC[C@H](O)CNC(C)(C)CCCc2ccccc2)c2c1O[C@@H]1[C@@H](C(=O)O)[C@H]21 [Example 8-16]	29
